Results on one molecule are retold here after ChEMBL document CHEMBL1141547, “Investigations of the esterase, phosphatase, and sulfatase activities of the cytosolic mammalian carbonic anhydrase isoforms I, II, and XIII with 4-nitrophenyl esters as substrates” (Bioorg Med Chem Lett, 2008).

The target in assay [1] is T1, Carbonic anhydrase 13 (Mus musculus, UniProt Q9D6N1). The experiment in a line: Inhibition of mouse carbonic anhydrase 13 assessed as 4-nitrophenyl phosphate hydrolysis.
The target in assay [2] is T1, Carbonic anhydrase 13. Kind of assay: Inhibition of mouse carbonic anhydrase 13 assessed as 4-nitrophenyl acetate hydrolysis.

T1 sequence (Q9D6N1 whole entry): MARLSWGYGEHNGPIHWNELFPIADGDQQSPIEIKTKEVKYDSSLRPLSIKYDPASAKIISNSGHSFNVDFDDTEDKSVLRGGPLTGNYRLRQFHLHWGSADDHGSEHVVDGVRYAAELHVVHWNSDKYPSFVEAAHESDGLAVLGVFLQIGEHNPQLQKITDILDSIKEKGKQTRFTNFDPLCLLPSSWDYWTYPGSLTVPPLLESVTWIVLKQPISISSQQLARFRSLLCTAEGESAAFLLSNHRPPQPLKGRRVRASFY

A word on the IC50: it is the midpoint of a concentration-inhibition curve. In the case of `CC(=O)Nc1nnc(S(N)(=O)=O)s1` [ACETAZOLAMIDE], the results for the 50% inhibitory concentration (IC50) on Carbonic anhydrase 13 [1] and at Carbonic anhydrase 13 [2] were 1050 nM and 490 nM, respectively.
